# In PMC4180634, “Pharmacokinetic Study and Bioavailability of a Novel Synthetic Trioxane Antimalarial Compound 97/63 in Rats” (Malaria Research and Treatment, 2014):
# Where two headings read alike, the source gives them in different places.
# Assays:
# [1] = system: malarial parasites; parameters: method as in earlier work; details: cited from earlier work
# [2] = Stability studies of 97/63 in rat serum samples (long-term, freeze-thaw, dry residue, autoinjector); assay type: physicochemical
# Method: Long-term stability of 97/63 was carried by preparing QC samples at low, medium, and high concentrations in three replicates for four different days and stored at -60°C. These sets of samples were analyzed after 0, 7, 15, and 30 days of storage and their concentrations were read from the respective calibration standard curve. The results are expressed as % deviation from 0 days concentration. F-T stability of 97/63 in serum samples was determined by preparing QC of strengths low (10 ng mL^-1), medium (100 ng mL^-1), and high (500 ng mL^-1) in three replicates for four different days. One set of three concentrations was analyzed on day of preparation (no F-T cycle) before storing the remaining sets at -60°C. Other sets were analyzed after 1, 2, and […] cycles. Thawing was achieved by keeping the sealed tubes at room temperatures for 30 min. The results are expressed as % deviation with initial concentration. The effect of storage on dry residue stability was determined at QC 10 ng mL^-1 (low), 100 ng mL^-1 (medium), and 500 ng mL^-1 (high) concentration levels. All the samples (three replicates of three concentrations × 4 sets) were prepared and dry residue was stored in glass tubes sealed with aluminum foil and then with parafilm. One set in triplicate was reconstituted on day 1 with mobile phase and analyzed on the same day (without storage). The remaining sets were similarly analyzed on days 2, 4, and 8 and results are expressed as % deviation. After sample preparation, stability of 97/63 in the autoinjector was evaluated for 4 h; the maximum duration for which the sample may have to wait in the autoinjector tray for pending analysis and results are expressed in % deviation with initial injection (t = 0 h).
# [3] = system: malarial parasites; parameters: method as in earlier work; details: cited from earlier work; remark: listed apart in the source
# [4] = log P; assay type: physicochemical
# [5] = Single dose pharmacokinetic study after oral and intravenous administration in male rats (serum, HPLC-UV); assay type: in vivo, Sprague-Dawley rats; details: for half-life: two-compartment model
# From the text: Male Sprague-Dawley (SD) rats weighing 250 ± 25 g for this study were obtained from institutional Laboratory Animal Division, CDRI, Lucknow, prior to study. Rats were given standard pellets for feeding and filtered water was given ad libitum and they were housed in well ventilated cages which were kept at room temperature on a regular 12-h light-dark cycle. Animals were kept in accordance with the guidelines of local ethical committee (Ethical approval 58/08/PKM/IAEC) for animal experimentation and principles of the guide for care and use of laboratory animals were followed (Department of Health Education and Welfare, number [NIH] 85-32). Oral and IV study was carried out in two sets (I and II). Each set contained two groups, that is, groups A and B. PK was carried out by dosing 97/63 in two groups (A and B) containing four rats in each group for sparse sampling. Young and healthy male SD rats weighing 250 ± 25 g (obtained from Laboratory Animal Division of CDRI) were housed in well ventilated cages and kept at room temperature 25 ± 2°C on a regular 12-h light-dark cycle. Animals were cared for in accordance with the principles of guide for care and use of laboratory animals. Animals in oral study group were fasted overnight to minimize the effects of food on pharmacokinetic profile of 97/63. Intravenous dose was administered as a single bolus injection through tail vein using a 26 G needle after dilating the tail vein [16]. The oral dose was administered using a 2 mL syringe and feeding needle. After intravenous and oral dose administration, rats were also monitored for physiological behavior. […] The intravenous formulation for single dose, 18 mg kg^−1, was a solution of 97/63 in DMSO. The oral formulation for single dose, 72 mg kg^−1, was also a solution of 97/63 in DMSO. The formulations were subjected to quality control (QC) checks to ensure their strength and content uniformity prior to use. The strength of formulation for intravenous and oral administration was 18 mg mL^−1 and 36 mg mL^−1. Compound 97/63 formulated in DMSO was administered to overnight fasted rats by oral and intravenous route. The dose volume factor for intravenous administration was 1 mL kg^−1, with 250 g rat receiving 0.25 mL, and for oral administration it was 2 mL kg^−1, with 250 g rat receiving 0.5 mL of formulation. Sparse sampling approach was used to collect blood samples by cardiac puncture. The total volume of blood withdrawn within 24 hours was less than 5% of blood volume. Blood samples were collected in glass tubes at 0.083, 0.25, 0.5, 0.75, 1, 1.5, 2, 3, 4, 6, 8, 10, 18, 24, 48, and 60 h after oral dose. Blood samples were stored at room temperature for 30 min to separate the serum. Serum was separated by centrifugation at 1500 ×g for 10 min and stored at –60°C until analysis. Analysis was performed within 30 days of sample collection. Curve fitting and estimation of pharmacokinetic parameters of 97/63 were carried out using WinNonlin (5.1) software program (Pharsight Corp, USA). The data were tested using Gauss-Newton algorithm, with noncompartment, one compartment, and two-compartment models after applying different weighting factor to the observed values of the concentrations. Decision on the suitability of a particular compartment model in explaining the data was undertaken based on the Akaike or Schwarz information criterion, correlation coefficient, and scatter of residuals.
# [6] = Sprague-Dawley, rat, oral 72 mg kg^−1, male rats, serum
smiles,measurement,setting,value
C=C(c1ccc(OC(C)(C)CO)cc1)C1COC2(OO1)C1CC3CC(C1)CC2C3 (stereo not shown) [97/63],potency against malarial parasites in vivo,[1],good potency
same,"reinjection (autoinjector) stability, deviation","[2]; 4 h gap, samples stored at 4°C",less than 10%
same,dry residue stability after extraction,[2]; 8 days stored at −60°C,stable
same,long-term stability in serum,"[2]; 30 days, normal serum stored at −60°C",stable
same,freeze-thaw stability in serum,[2]; three F-T cycles,stable
same,potency against malarial parasites in vitro,[3],good potency
same,logP,[4],< 3.5
same,clearance,"[5]; Sprague-Dawley, rat, serum, intravenous 18 mg kg^−1, male rats",8.89 L/h/kg
same,Vd,"[5]; Sprague-Dawley, rat, serum, intravenous 18 mg kg^−1, male rats, read-out: Vd",135 ± 11.2 L/kg
same,AUC(0-inf),"[5]; Sprague-Dawley, rat, intravenous 18 mg kg^−1, male rats, serum",2.03 ± 0.574 µg·h/mL
same,C0,"[5]; Sprague-Dawley, rat, intravenous 18 mg kg^−1, male rats, serum, mean ± SD, N = 4",1.8 ± 0.33 µg/mL
same,AUC(0-inf),[5]; [6],1.27 ± 0.027 µg·h/mL
same,Tmax,[5]; [6],1 ± 0.7 h
same,Cmax,"[5]; Sprague-Dawley, rat, oral 72 mg kg^−1, male rats, serum, mean ± SD, N = 4",0.229 ± 0.0643 µg/mL
same,metabolite peaks in rat serum,"[5]; after oral and intravenous dose, HPLC-UV",No metabolite peaks were observed
same,half-life,"[5]; male, Sprague-Dawley, rat, serum, iv, 18 mg/kg, intravenous 18 mg kg^−1, male rats, read-out: T 1/2 (α) distribution half-life (converted)",0.45 ± 0.08 h
same,half-life,"[5]; male, Sprague-Dawley, rat, serum, iv, 18 mg/kg, intravenous 18 mg kg^−1, male rats, read-out: T 1/2 (β) elimination half-life (converted)",10.6 ± 0.16 h
same,bioavailability,"[5]; male, Sprague-Dawley, rat, serum, oral, 72 mg kg^−1, oral 72 mg kg^−1 vs intravenous 18 mg kg^−1, male rats, read-out: % bioavailability (absolute)",~16%
same,half-life,"[5]; male, Sprague-Dawley, rat, serum, po, 72 mg/kg, oral 72 mg kg^−1, male rats, read-out: T 1/2 (α) distribution half-life (converted)",0.84 ± 0.14 h
same,half-life,"[5]; male, Sprague-Dawley, rat, serum, po, 72 mg/kg, oral 72 mg kg^−1, male rats, read-out: T 1/2 (β) elimination half-life (converted)",10.6 ± 0.2 h
same,Cl,"[5]; oral 72 mg kg^−1, male rats",11.2 ± 0.07 L/h/kg
same,Vd,"[5]; oral 72 mg kg^−1, male rats",172.31 ± 28.59 L/kg
same,absorption rate constant (K a),"[5]; oral 72 mg kg^−1, male rats",0.82 h⁻¹
same,clinical symptoms after dosing,"[5]; oral 72 mg kg^−1 and intravenous 18 mg kg^−1, male rats, sampling period",No abnormal clinical symptoms
same,% bioavailability (absolute),"[5]; oral 72 mg kg^−1 vs intravenous 18 mg kg^−1, male rats",15.66%
